This note sets out measurements from patent US20230114728A1 (Venatorx Pharmaceuticals, Inc., priority 2019, published 2023).

Converted amounts (≈) assume the structure as drawn.

Common to all, as to test: Broth microdilution MIC in CAMHB
Type in all cases: cell-based

One test deals with A. baumannii ATCC 19606. To be noted: Acinetobacter baumannii, ATCC19606; MHB; read-out: Minimum Inhibitory Concentration, A. baumannii ATCC 19606. In short, it runs like this: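 CLSI microdilution; CAMHB; inoculum 2-8×10^5 CFU/mL from 3-5 h 37° C culture; 2-fold compound series; 16-20 h, 37° C; MIC = lowest well without visible growth.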
The subject of test [1] is K. pneumoniae SI-117 producing VIM-1. The following applies: Klebsiella pneumoniae, read-out: Minimum Inhibitory Concentration, K. pneumoniae SI-117. In short, it runs like this: (§1)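 Colonies from cation-adjusted Mueller Hinton agar are grown in broth (3-5 h, 37° C), adjusted by OD600, and added at 2-8×10^5 CFU/mL to 2-fold compound dilutions. After 16-20 h at 37° C, the lowest concentration without growth is taken as MIC.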

In the next test the test system is E. coli AG100. The following applies: Escherichia coli; E. coli AG100 (wild-type parent); MHB; read-out: Minimum Inhibitory Concentration, E. coli AG100. In short, it runs like this: as §1
The subject of the next test is E. coli AG100A. To be noted: Escherichia coli, read-out: Minimum Inhibitory Concentration, E. coli AG100A. In short, it runs like this:
as §1

Test [2] relates to K. pneumoniae UMM producing SHV-5 and KPC-2. The following applies: Klebsiella pneumoniae, read-out: Minimum Inhibitory Concentration, K. pneumoniae UMM. In short, it runs like this:
as §1

Test [3] relates to P. aeruginosa (ΔmexAB-oprM). The following applies: Pseudomonas aeruginosa, read-out: Minimum Inhibitory Concentration, P. aeruginosa ΔmexAB-OprM. In short, it runs like this:
as §1

Another test has as its system E. coli 901C. The following applies: Escherichia coli; E. coli 901C (hyper-permeable); MHB; read-out: Minimum Inhibitory Concentration, E. coli 901C. In short, it runs like this:
as §1

For a further test, the system named is P. aeruginosa ATCC 27853. To be noted: Pseudomonas aeruginosa, ATCC27853; MHB; read-out: Minimum Inhibitory Concentration, P. aeruginosa ATCC 27853. In short, it runs like this: as §1
The test system of a further test is P. aeruginosa ATCC 35151. The following applies: Pseudomonas aeruginosa, ATCC35151; MHB; hyper-permeable strain; read-out: Minimum Inhibitory Concentration, P. aeruginosa ATCC 35151. In short, it runs like this: as §1
The next test has as its system E. coli ATCC 25922. To be noted: Escherichia coli, ATCC25922; E. coli ATCC 25922; MHB; read-out: Minimum Inhibitory Concentration, E. coli 25922. In short, it runs like this: as §1
The test system of another test is E. coli D22. The following applies: Escherichia coli; E. coli D22 (hyper-permeable); MHB; read-out: Minimum Inhibitory Concentration, E. coli D22. In short, it runs like this:
as §1

Test [4] concerns K. pneumoniae 848844 producing SHV-11 and KPC-2. The following applies: Klebsiella pneumoniae, read-out: Minimum Inhibitory Concentration, K. pneumoniae 848844. In short, it runs like this:
as §1

Turning to `CCN1CCN(C(=O)N[C@@H](C(=O)N[C@H]2Cc3cccc(C(=O)O)c3OB2O)c2ccc(C(=O)O)c(F)c2F)C(=O)C1=O` (single isomer, unassigned) [Example 140], the MIC in the test on A. baumannii ATCC 19606 is over 128 mg/L; in [1], over 128 mg/L; in the test on E. coli AG100, 32 to 64 mg/L (≈ 54.4 to 109 µM); with E. coli AG100A it was 2 to 4 mg/L (≈ 3.4 to 6.8 µM); in test [2] it was 32 to 64 mg/L (≈ 54.4 to 109 µM); in [3], 8 to 16 mg/L (≈ 13.6 to 27.2 µM). In addition, the MIC with E. coli 901C was under 0.25 mg/L; in the test with P. aeruginosa ATCC 27853 it was over 128 mg/L; in the test with P. aeruginosa ATCC 35151 it was under 0.25 mg/L; in the test on E. coli ATCC 25922, 32 to 64 mg/L (≈ 54.4 to 109 µM); in the test on E. coli D22, 2 to 4 mg/L (≈ 3.4 to 6.8 µM); in [4] it was over 128 mg/L.

In the case of `CCN1CCN(C(=O)N[C@H](C(=O)N[C@H]2Cc3cccc(C(=O)O)c3OB2O)c2ccc(C(=O)O)cc2O)C(=O)C1=O` (single isomer, unassigned) [Example 143], the MIC was over 128 mg/L with A. baumannii ATCC 19606; over 128 mg/L in test [1]; over 128 mg/L with E. coli AG100; 32 to 64 mg/L (≈ 56.3 to 113 µM) in the test with E. coli AG100A; over 128 mg/L in test [2]; over 128 mg/L in test [3]. The MIC in the test on E. coli 901C is 0.5 to 1 mg/L (≈ 0.88 to 1.76 µM); in the test on P. aeruginosa ATCC 27853, over 128 mg/L; in the test on P. aeruginosa ATCC 35151, 2 to 4 mg/L (≈ 3.52 to 7.04 µM); with E. coli ATCC 25922, over 128 mg/L; in the test with E. coli D22, 8 to 16 mg/L (≈ 14.1 to 28.2 µM); in test [4] it was over 128 mg/L.

On to `CCN1CCN(C(=O)N[C@@H](C(=O)N[C@H]2Cc3cccc(C(=O)O)c3OB2O)c2ccc(C(=O)O)cc2O)C(=O)C1=O` (single isomer, unassigned) [Example 144], for which the MIC was 32 to 64 mg/L (≈ 56.3 to 113 µM) with A. baumannii ATCC 19606; over 128 mg/L in [1]; 32 to 64 mg/L (≈ 56.3 to 113 µM) in the test on E. coli AG100; 8 to 16 mg/L (≈ 14.1 to 28.2 µM) in the test on E. coli AG100A; 32 to 64 mg/L (≈ 56.3 to 113 µM) in test [2]; 8 to 16 mg/L (≈ 14.1 to 28.2 µM) in [3]. Also, the MIC with E. coli 901C was under 0.25 mg/L; with P. aeruginosa ATCC 27853, over 128 mg/L; in the test with P. aeruginosa ATCC 35151, 0.5 to 1 mg/L (≈ 0.88 to 1.76 µM); in the test with E. coli ATCC 25922, 32 to 64 mg/L (≈ 56.3 to 113 µM); in the test on E. coli D22, 2 to 4 mg/L (≈ 3.52 to 7.04 µM); in test [4] it was over 128 mg/L.

Consider `CCN1CCN(C(=O)N[C@@H](C(=O)N[C@H]2Cc3cccc(C(=O)O)c3OB2O)c2ccc(C(=O)O)c(F)c2)C(=O)C1=O` (single isomer, unassigned) [Example 146], for which the MIC with A. baumannii ATCC 19606 is 32 to 64 mg/L (≈ 56.1 to 112 µM); in test [1], over 128 mg/L; in the test with E. coli AG100 it was 32 to 64 mg/L (≈ 56.1 to 112 µM); with E. coli AG100A, 2 to 4 mg/L (≈ 3.51 to 7.01 µM); in [2], 32 to 64 mg/L (≈ 56.1 to 112 µM); in [3], 8 to 16 mg/L (≈ 14 to 28.1 µM). For the same molecule, the MIC in the test on E. coli 901C was under 0.25 mg/L; with P. aeruginosa ATCC 27853, 32 to 64 mg/L (≈ 56.1 to 112 µM); in the test on P. aeruginosa ATCC 35151 it was under 0.25 mg/L; with E. coli ATCC 25922, 32 to 64 mg/L (≈ 56.1 to 112 µM); in the test with E. coli D22, 2 to 4 mg/L (≈ 3.51 to 7.01 µM); in test [4], over 128 mg/L.

In the case of `CCN1CCN(C(=O)N[C@H](C(=O)N[C@H]2Cc3cccc(C(=O)O)c3OB2O)c2ccc(C(=O)O)c(F)c2)C(=O)C1=O` (single isomer, unassigned) [Example 147], the MIC was over 128 mg/L in the test on A. baumannii ATCC 19606; over 128 mg/L in test [1]; 32 to 64 mg/L (≈ 56.1 to 112 µM) with E. coli AG100; 2 to 4 mg/L (≈ 3.51 to 7.01 µM) with E. coli AG100A; 32 to 64 mg/L (≈ 56.1 to 112 µM) in test [2]; 8 to 16 mg/L (≈ 14 to 28.1 µM) in test [3]. Also, the MIC was under 0.25 mg/L in the test on E. coli 901C; over 128 mg/L in the test with P. aeruginosa ATCC 27853; under 0.25 mg/L with P. aeruginosa ATCC 35151; 32 to 64 mg/L (≈ 56.1 to 112 µM) in the test on E. coli ATCC 25922; 2 to 4 mg/L (≈ 3.51 to 7.01 µM) with E. coli D22; over 128 mg/L in [4].

For the molecule `CCN1CCN(C(=O)N[C@@H](C(=O)N[C@H]2Cc3cccc(C(=O)O)c3OB2O)c2cc(F)c(C(=O)O)cc2Cl)C(=O)C1=O` (single isomer, unassigned) [Example 148], the MIC with A. baumannii ATCC 19606 was over 128 mg/L; in test [1] it was over 128 mg/L; in the test with E. coli AG100 it was 32 to 64 mg/L (≈ 52.9 to 106 µM); with E. coli AG100A it was 8 to 16 mg/L (≈ 13.2 to 26.5 µM); in [2] it was 32 to 64 mg/L (≈ 52.9 to 106 µM); in test [3], 8 to 16 mg/L (≈ 13.2 to 26.5 µM). In addition, the MIC in the test on E. coli 901C was under 0.25 mg/L; in the test on P. aeruginosa ATCC 27853 it was over 128 mg/L; in the test with P. aeruginosa ATCC 35151, under 0.25 mg/L; with E. coli ATCC 25922, over 128 mg/L; in the test on E. coli D22 it was 2 to 4 mg/L (≈ 3.31 to 6.61 µM); in [4], over 128 mg/L.

Regarding `CCN1CCN(C(=O)N[C@H](C(=O)N[C@H]2Cc3cccc(C(=O)O)c3OB2O)c2cc(F)c(C(=O)O)cc2Cl)C(=O)C1=O` (single isomer, unassigned) [Example 149], the MIC in the test on A. baumannii ATCC 19606 was over 128 mg/L; in test [1] it was over 128 mg/L; in the test on E. coli AG100, over 128 mg/L; with E. coli AG100A it was 32 to 64 mg/L (≈ 52.9 to 106 µM); in test [2], over 128 mg/L; in test [3], over 128 mg/L. For the same molecule, the MIC in the test on E. coli 901C was 0.5 to 1 mg/L (≈ 0.827 to 1.65 µM); in the test with P. aeruginosa ATCC 27853, over 128 mg/L; in the test on P. aeruginosa ATCC 35151 it was 2 to 4 mg/L (≈ 3.31 to 6.61 µM); with E. coli ATCC 25922, over 128 mg/L; in the test with E. coli D22, 8 to 16 mg/L (≈ 13.2 to 26.5 µM); in test [4], over 128 mg/L.
